Data: patent US10538567B2, “Compounds as peptidic trigonal GLP1/glucagon/GIP receptor agonists” (priority 2016, dated 2020)
Numbered stars: 1 amine (or outer) side, 2 acyl side, 3 side chain; on linkers, the order of the positions; unused ones are H or OH. Square brackets hold non-standard residues; d marks the D form. Side chains are listed from the residue outwards. Peptide text beside a SMILES is read from it. * marks the point of attachment. γGlu = O=C(O)[C@H](CCC(=O)[*:2])N[*:1]; Stearoyl = CCCCCCCCCCCCCCCCCC(=O)*; Palmitoyl = CCCCCCCCCCCCCCCC(=O)*; AEEA = NCCOCCOCC(=O)O; Aib = CC(C)(N)C(=O)O

System: not listed separately
Test: Thioflavin T (ThT) assay for physical stability (fibrillation)
Assay type: physicochemical
Conditions: 3 mg/ml, 100 mM acetate pH 4.5 with m-cresol, 37° C. shaking
Excerpt: Low physical stability of a peptide solution may lead to amyloid fibril formation, which is observed as well-ordered, thread-like macromolecular structures in the sample, which eventually may lead to gel formation. Thioflavin T (ThT) is widely used to visualize and quantify the presence of misfolded protein aggregates. [Biancalana et al. (2010) Biochimica et Biophysica Acta. 1804 (7): 1405-1412]. […] Enzymol. 309, 274-284]. The time course for fibril formation often follows the characteristic shape of a sigmoidal curve and can be separated into three regions: a lag phase, a fast growth phase, and a plateau phase.
The typical fibril formation process starts with the lag phase in which the amount of partially folded peptide turned into fibrils is not significant enough to be detected. The lag-time corresponds to the time the critical mass of the nucleus is built. Afterwards, a drastic elongation phase follows and fibril concentration increases rapidly.
Investigations were carried out to determine fibrillation tendencies under stress conditions by shaking at 37° C. within Fluoroskan Ascent FL.
For the tests in Fluoroskan Ascent FL, 200 μL sample were placed into a 96 well mictrotiter plate PS, flat bottom, Greiner Fluotrac No. 655076. Plates were sealed with Scotch Tape (Quiagen). Samples were stressed by continuous cycles of 10 s shaking at 960 rpm and 50 s rest period at 37° C. The kinetic was monitored by measuring fluorescence intensity every 20 minutes.
Peptides were diluted in a buffer system to a final concentration of 3 mg/ml. 20 μL of a 10.1 mM ThT solution in H2O were added to 2 mL of peptide solution to receive a final concentration of 100 μM ThT. For each sample eight replicates were tested.
Tht buffer system A) 100 mM Acetate pH 4.5 including m-cresol (100 mM Natriumacetat trihydrat, pH adjustment using 2N CH3COOH, 2.7 mg/mL m-cresol) Tht buffer system B) 100 mM citrate buffer pH 6.0
Lag time in hours in Thioflavin T (ThT) assay of peptide samples was determined in ThT buffer system A as described in Methods.

Row | Lag time before increase [h] | Molecule
1 | >45 | CCCCCCCCCCCCCCCC(=O)N[C@@H](CCC(=O)NCCCC[C@H](NC(=O)[C@H](CC(C)C)NC(=O)[C@H](CCCCN)NC(=O)[C@H](CO)NC(=O)[C@H](CC(C)C)NC(=O)[C@H](CC(=O)O)NC(=O)[C@H](CO)NC(=O)[C@@H](NC(=O)[C@H](Cc1ccccc1)NC(=O)[C@@H](NC(=O)CNC(=O)[C@H](Cc1c[nH]cn1)NC(=O)C(C)(C)NC(=O)[C@@H](N)Cc1c[nH]cn1)[C@@H](C)O)[C@@H](C)O)C(=O)N[C@@H](CCC(=O)O)C(=O)N[C@@H](CCC(=O)O)C(=O)N[C@@H](CCC(N)=O)C(=O)N[C@@H](CCCNC(=N)N)C(=O)N[C@@H](CCC(N)=O)C(=O)NC(C)(C)C(=O)N[C@@H](CCC(=O)O)C(=O)N[C@@H](Cc1ccccc1)C(=O)N[C@H](C(=O)N[C@@H](CCC(=O)O)C(=O)N[C@@H](Cc1c[nH]c2ccccc12)C(=O)N[C@@H](CC(C)C)C(=O)N[C@@H](CCCCN)C(=O)N[C@@H](C)C(=O)NCC(=O)NCC(=O)N1CCC[C@H]1C(=O)N1CCC[C@H]1C(=O)N[C@@H](CO)C(=O)NC(C)(C)C(=O)N[C@@H](CCCCN)C(=O)N1CCC[C@H]1C(=O)N1CCC[C@H]1C(=O)N1CCC[C@H]1C(=O)N[C@@H](CCCCN)C(N)=O)[C@@H](C)CC)C(=O)O [SEQ ID NO: 18, H-Aib-H-G-T-F-T-S-D-L-S-K-L-K[gGlu-Palm]-E-E-Q-R-Q-Aib-E-F-I-E-W-L-K-A-G-G-P-P-S-Aib-K-P-P-P-K-NH2]
2 | >45 | CCCCCCCCCCCCCCCCCC(=O)N[C@@H](CCC(=O)NCCCC[C@H](NC(=O)[C@H](CC(C)C)NC(=O)[C@H](CCCCN)NC(=O)[C@H](CO)NC(=O)[C@H](CC(C)C)NC(=O)[C@H](CC(=O)O)NC(=O)[C@H](CO)NC(=O)[C@@H](NC(=O)[C@H](Cc1ccccc1)NC(=O)[C@@H](NC(=O)CNC(=O)[C@H](Cc1c[nH]cn1)NC(=O)C(C)(C)NC(=O)[C@@H](N)Cc1c[nH]cn1)[C@@H](C)O)[C@@H](C)O)C(=O)N[C@@H](CCC(=O)O)C(=O)N[C@@H](CCC(=O)O)C(=O)N[C@@H](CCC(N)=O)C(=O)N[C@@H](CCCNC(=N)N)C(=O)N[C@@H](CCC(N)=O)C(=O)NC(C)(C)C(=O)N[C@@H](CCC(=O)O)C(=O)N[C@@H](Cc1ccccc1)C(=O)N[C@H](C(=O)N[C@@H](CCC(=O)O)C(=O)N[C@@H](Cc1c[nH]c2ccccc12)C(=O)N[C@@H](CC(C)C)C(=O)N[C@@H](CCCCN)C(=O)N[C@@H](C)C(=O)NCC(=O)NCC(=O)N1CCC[C@H]1C(=O)N1CCC[C@H]1C(=O)N[C@@H](CO)C(=O)NC(C)(C)C(=O)N[C@@H](CCCCN)C(=O)N1CCC[C@H]1C(=O)N1CCC[C@H]1C(=O)N1CCC[C@H]1C(=O)N[C@@H](CCCCN)C(N)=O)[C@@H](C)CC)C(=O)O [SEQ ID NO: 19, H-Aib-H-G-T-F-T-S-D-L-S-K-L-K[gGlu-Stea]-E-E-Q-R-Q-Aib-E-F-I-E-W-L-K-A-G-G-P-P-S-Aib-K-P-P-P-K-NH2] (H-H[Aib]HGTFTSDLSKLK([γGlu-Stearoyl])EEQRQ[Aib]EFIEWLKAGGPPS[Aib]KPPPK-NH2)

System: female diabetic db/db mice
Test: Acute effects after s.c. treatment on blood glucose in non-fasting female diabetic db/db mice
Assay type: in vivo
Conditions: single 30 μg/kg s.c.
Method: Female healthy, lean BKS.Cg-(lean)/OlaHsd and diabetes-prone, obese BKS.Cg-+Lepr^db/+Lepr^db/OlaHsd mice were ordered group housed from Envigo RMS Inc., shipped group housed and remained group housed in shoebox caging with wood chip bedding until day 15 of the predose phase. At the study start mice were approximately 12 weeks old.
Mice were housed under vivarium conditions including a 12 h light/dark cycle (light phase 04:00 AM-4:00 PM), room temperatures between 23-26° C. and a relative humidity between 30-70%. All animals had free access to water and Purina Fomulab Diet 5008.
On predose day 9 blood glucose and body mass (approximately between 08:00-10:00 AM) as well as HbA1c measurements were performed. On day 15 of the predose phase animals were assigned to treatment groups (n=8) and to new cages to match mean HbA1c and body masses between all db/db groups. An age-matched lean group was included in the study as a healthy, lean reference.
Prior to day 1 of the dosing phase, the test article was diluted with Phosphate Buffered Saline (PBS, Gibco, without CaCl2 and MgCl2) to a concentration of 1 mg/mL and aliquots of this stock solution were stored at approximately ≤−60° C. On day 1 of the dosing phase the stock aliquot was thawed and the injected test article solution was prepared fresh by diluting it with PBS to achieve the desired concentration.
On Day 1 of the dosing phase db/db mice were either treated once with a s.c. injection of PBS-vehicle or 30 μg/kg test article. The lean reference group was treated once with a s.c. injection of PBS-vehicle. The dosing was initiated and completed between 08:00 and 10:00 AM. The applied volume was 5 ml/kg and the dose was adjusted to the most recent body mass recording of each individual.
Animals had unlimited access to water and feed during the experiment. On day 1 of the dosing phase approximately 5 μL of blood were collected via tail clips at minute −30 and 0 prior to any other inlife activities. At minute 0 mice received a s.c. dose of either PBS-vehicle or 30 μg/kg test article. Further blood samples were harvested at hour 0.25, 0.5, 1, 1.5, 2, 3, 4, 6, 8, and 24 post-dose. Glucose measurements were performed in whole blood using AlphaTRAK glucometers. If the glucose concentrations of two measurements differed by more than 20 mg/dL a third value was recorded. The Area Under the Curve (AUC) for blood glucose was calculated via the trapezoid method and for the duration of the 24 post-dose hours.
In the Figures data are depicted as means±SEM. […] A One Way Analysis of Variance and multiple comparisons (Dunnett's Method) were performed comparing the group of diabetic, obese db/db vehicle mice (n=8) with each diabetic, obese db/db test article treated mice (n=8). […] Non-diabetic, lean-vehicle group data are depicted in the Figures serving as a reference dataset for the non-obese, non-diabetic state.

Row | Molecule | mean blood glucose concentration 24 hours post-dose relative to baseline
3 | H-Aib-H-G-T-F-T-S-D-L-S-K-L-K[gGlu-gGlu-AEEA-Palm]-E-E-Q-R-Q-Aib-E-F-I-E-W-L-K-A-G-G-P-P-S-Aib-K-P-P-P-K-NH2 (H-H[Aib]HGTFTSDLSKLK([γGlu-γGlu-AEEA-Palmitoyl])EEQRQ[Aib]EFIEWLKAGGPPS[Aib]KPPPK-NH2) [SEQ ID NO: 26] | at or close to baseline
